Data taken from patent publication US20060004197A1, “Sulfonamide-based compounds as protein tyrosine kinase inhibitors” (priority 2004, published 2006).

What was measured:
Format in all cases: biochemical
Conditions in all cases: Table 3, Formula II compounds; NI = no inhibition at 100 μg/mL
Recombinant human Src = molecular target: T1, Recombinant human Src (Homo sapiens, UniProt P12931); assay: Src tyrosine kinase activity, poly E4Y / 32P-ATP phosphorylation assay
T1 construct: made in house; host or cells: baculovirus-insect cell system

FGF receptor (FGFr) = assay: FGFr tyrosine kinase activity, poly E4Y / 32P-ATP phosphorylation assay
Recombinant Csk = Recombinant Csk (Homo sapiens, UniProt P41240); assay: Csk tyrosine kinase activity, poly E4Y / 32P-ATP phosphorylation assay

T1 sequence (P12931 whole entry): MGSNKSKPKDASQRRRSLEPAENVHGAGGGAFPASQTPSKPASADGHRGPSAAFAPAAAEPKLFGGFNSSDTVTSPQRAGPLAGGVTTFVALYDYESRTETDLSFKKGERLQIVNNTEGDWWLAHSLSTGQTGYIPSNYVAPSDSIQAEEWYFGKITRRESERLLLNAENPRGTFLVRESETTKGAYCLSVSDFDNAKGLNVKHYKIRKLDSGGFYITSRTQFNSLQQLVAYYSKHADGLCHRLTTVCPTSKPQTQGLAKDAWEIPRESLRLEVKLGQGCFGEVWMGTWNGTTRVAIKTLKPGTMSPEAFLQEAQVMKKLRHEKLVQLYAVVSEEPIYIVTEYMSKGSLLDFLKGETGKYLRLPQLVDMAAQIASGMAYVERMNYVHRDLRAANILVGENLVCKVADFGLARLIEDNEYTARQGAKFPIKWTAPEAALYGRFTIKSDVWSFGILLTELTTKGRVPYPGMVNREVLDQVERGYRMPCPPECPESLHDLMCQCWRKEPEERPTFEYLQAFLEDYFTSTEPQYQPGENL

SMILES | IC50 (Recombinant human Src) [µM] | IC50 (FGF receptor (FGFr)) [µM] | IC50 (Recombinant Csk) [µM] | IC50 (μM) FGFr (FGF receptor (FGFr))
COc1ccc(Oc2ccc(NS(=O)(=O)c3cccc([N+](=O)[O-])c3)c(NS(=O)(=O)c3cccc([N+](=O)[O-])c3)c2)cc1 [Compound 12f, N-[4-(4-methoxy-phenoxy)-2-(3-nitro-benzenesulfonylamino)-phenyl]-3-nitro-benzenesulfonamide] | 20 | 35 | > 167 | 
Cc1ccc(S(=O)(=O)Nc2ccc(Sc3ccc(Cl)cc3)cc2NS(=O)(=O)c2ccc(C)cc2)cc1 [Compound 12ff, N-[4-(4-chloro-phenylsulfanyl)-2-(4-toluenesulfonylamino)-phenyl]-4-toluenesulfonamide] | 4 | 3.6 | 8.6 | 
COc1ccc(Oc2ccc(NS(=O)(=O)Cc3ccccc3)c(NS(=O)(=O)Cc3ccccc3)c2)cc1 [Compound 12g, N-[4-(4-methoxy-phenoxy)-2-phenylmethanesulfonylamino-phenyl]-C-phenyl-methanesulfonamide] | 35 | 70 | 102 | 
COc1ccc(Sc2ccc(NS(=O)(=O)c3ccc(C)cc3)c(NS(=O)(=O)c3ccc(C)cc3)c2)cc1 [Compound 12gg, N-[5-(4-methoxy-phenylsulfanyl)-2-(4-toluenesulfonylamino)-phenyl]-4-toluenesulfonamide] | 16 | 17 | > 180 | 
COc1ccc(Oc2ccc(NS(=O)(=O)c3cccc4ccccc34)c(NS(=O)(=O)c3cccc4ccccc34)c2)cc1 [Compound 12h, naphthalene-1-sulfonic acid [4-(4-methoxy-phenoxy)-2-(naphthalen-1-yl-sulfonylamino)-phenyl]-amide] | 9 | 36 | 98 | 
CCCCSc1ccc(NS(=O)(=O)c2ccc(C)cc2)c(NS(=O)(=O)c2ccc(C)cc2)c1 [Compound 12hh, N-[4-butylsulfanyl-2-(4-toluenesulfonylamino)-phenyl]-4-toluenesulfonamide] | 18 | 30 | > 198 | 
COc1ccc(Oc2ccc(NS(=O)(=O)c3ccc4ccccc4c3)c(NS(=O)(=O)c3ccc4ccccc4c3)c2)cc1 [Compound 12i, naphthalene-2-sulfonic acid [4-(4-methoxy-phenoxy)-2-(naphthalen-2-yl-sulfonylamino)-phenyl]-amide] | 8 | 48 | > 164 | 
COc1ccc(Oc2ccc(NS(=O)(=O)c3ccc(NC(C)=O)cc3)c(NS(=O)(=O)c3ccc(NC(C)=O)cc3)c2)cc1 [Compound 12j, N-[2-(4-acetamido-benzenesulfonylamino)-4-(4-methoxy-phenoxy)-phenyl]-4-acetamido-benzenesulfonamide] | 50 | 192 | > 160 | 
COc1ccc(Oc2ccc(NS(=O)(=O)c3ccc(OC)cc3)c(NS(=O)(=O)c3ccc(OC)cc3)c2)cc1 [Compound 12k, N-[2-(4-methoxy-benzenesulfonylamino)-4-(4-methoxy-phenoxy)-phenyl]-4-methoxy-benzenesulfonamide] | 21 | 44 | 88 | 
CCCCS(=O)(=O)Nc1ccc(Oc2ccc(OC)cc2)cc1NS(=O)(=O)CCCC [Compound 12l, butane-1-sulfonic acid [2-(butane-1-sulfonylamino)-4-(4-methoxy-phenoxy)-phenyl]-amide] | 40 | 81 | > 212 | 
COc1ccc(Oc2ccc(NS(=O)(=O)c3ccc(OC)c(OC)c3)c(NS(=O)(=O)c3ccc(OC)c(OC)c3)c2)cc1 [Compound 12m, N-[2-(3,4-dimethoxy-benzenesulfonylamino)-4-(4-methoxy-phenoxy)-phenyl]-3,4-dimethoxy-benzenesulfonamide] | 54 |  | > 159 | NI (NI = no inhibition at 100 μg/mL)
COc1ccc(Oc2ccc(NS(=O)(=O)c3ccccc3)c(NS(=O)(=O)c3ccccc3)c2)cc1 [Compound 12n, N-[2-benzenesulfonylamino-4-(4-methoxy-phenoxy)-phenyl]-benzenesulfonamide] | 29 | 24 | > 196 | 
COc1ccc(Oc2ccc(NS(=O)(=O)c3ccc(C(C)(C)C)cc3)c(NS(=O)(=O)c3ccc(C(C)(C)C)cc3)c2)cc1 [Compound 12o, N-[2-(4-t-butyl-benzenesulfonylamino)-4-(4-methoxy-phenoxy)-phenyl]-4-t-butyl-benzenesulfonamide] | 7.2 | 22 | > 161 | 
COc1ccc(Oc2ccc(NS(=O)(=O)c3ccc(C)cc3)c(NS(=O)(=O)c3ccc(C)cc3)c2)cc1 [Compound 12p, N-[5-(4-methoxy-phenoxy)-2-(4-toluenesulfonylamino)-phenyl]-4-toluenesulfonamide] | 28 | 26 | > 186 | 
COc1ccc(Oc2ccc(NS(=O)(=O)c3c(C)cc(C)cc3C)c(NS(=O)(=O)c3c(C)cc(C)cc3C)c2)cc1 [Compound 12q, N-[4-(4-methoxy-phenoxy)-2-(2,4,6-trimethylbenzenesulfonylamino)-phenyl]-2,4,6-trimethylbenzenesulfonamide] | 39 | 42 | > 168 | 
Cc1ccc(S(=O)(=O)Nc2ccc(Oc3ccc(F)cc3)cc2NS(=O)(=O)c2ccc(C)cc2)cc1 [Compound 12t, N-[4-(4-fluoro-phenoxy)-2-(4-toluenesulfonylamino)-phenyl]-4-toluenesulfonamide] | 19 | 40 | 105 | 
Cc1ccc(S(=O)(=O)Nc2ccc(Oc3ccc4ccccc4c3)cc2NS(=O)(=O)c2ccc(C)cc2)cc1 [Compound 12u, N-[4-(naphthalene-2-yloxy)-2-(4-toluenesulfonylamino)-phenyl]-4-toluenesulfonamide] | 12 | 38 | 104 | 
COc1ccc(NS(=O)(=O)c2ccc(C)cc2)c(NS(=O)(=O)c2ccc(C)cc2)c1 [Compound 12v, N-[4-methoxy-2-(4-toluenesulfonylamino)-phenyl]-4-toluenesulfonamide] | 69 | 145 | > 224 | 
Cc1ccc(S(=O)(=O)Nc2ccc(Oc3ccc(Cl)cc3)cc2NS(=O)(=O)c2ccc(C)cc2)cc1 [Compound 12w, N-[4-(4-chloro-phenoxy)-2-(4-toluenesulfonylamino)-phenyl]-4-toluenesulfonamide] | 5.5 | 15.3 | 185 | 
Cc1ccc(S(=O)(=O)Nc2ccc(Oc3cccc(C(=O)O)c3)cc2NS(=O)(=O)c2ccc(C)cc2)cc1 [Compound 12x, N-[4-(3-carboxy-phenoxy)-2-(4-toluenesulfonylamino)-phenyl]-4-toluenesulfonamide] | 9.5 | 31 | 72 | 
Cc1ccc(S(=O)(=O)Nc2ccc(Oc3cccc(CC(=O)O)c3)cc2NS(=O)(=O)c2ccc(C)cc2)cc1 [Compound 12y, {3-[3,4-bis(4-toluenesulfonylamino)-phenoxy]-phenyl}-acetic acid] | 11 | 26 | 104 | 

Other lines, results leading:

IC50 (Recombinant human Src) [µM] | IC50 (FGF receptor (FGFr)) [µM] | IC50 (Recombinant Csk) [µM] | IC50 (μM) FGFr (FGF receptor (FGFr)) | SMILES
14 | 88 | > 180 |  | Cc1ccc(S(=O)(=O)Nc2ccc(OCc3ccc(Cl)cc3)cc2NS(=O)(=O)c2ccc(C)cc2)cc1 [Compound 15b, N-[4-(4-chloro-benzyloxy)-2-(4-toluenesulfonylamino)-phenyl]-4-toluenesulfonamide]
27 | 54 | > 180 |  | Cc1ccc(S(=O)(=O)Nc2ccc(OCc3cccc(Cl)c3)cc2NS(=O)(=O)c2ccc(C)cc2)cc1 [Compound 15c, N-[4-(3-chloro-benzyloxy)-2-(4-toluenesulfonylamino)-phenyl]-4-toluenesulfonamide]
14 | 66 | 59 |  | Cc1ccc(S(=O)(=O)Nc2ccc(OCc3ccccc3Cl)cc2NS(=O)(=O)c2ccc(C)cc2)cc1 [Compound 15d, N-[4-(2-chloro-benzyloxy)-2-(4-toluenesulfonylamino)-phenyl]-4-toluenesulfonamide]
15 | 132 | > 181 |  | COc1ccc(COc2ccc(NS(=O)(=O)c3ccc(C)cc3)c(NS(=O)(=O)c3ccc(C)cc3)c2)cc1 [Compound 15e, N-[4-(4-methoxy-benzyloxy)-2-(4-toluenesulfonylamino)-phenyl]-4-toluenesulfonamide]
42 | 91 | > 189 |  | Cc1ccc(S(=O)(=O)Nc2ccc(OCC3CCCCC3)cc2NS(=O)(=O)c2ccc(C)cc2)cc1 [Compound 15f, N-[4-cyclohexylmethoxy-2-(4-toluenesulfonylamino)-phenyl]-4-toluenesulfonamide]
11 |  | > 174 | NI (NI = no inhibition at 100 μg/mL) | Cc1ccc(S(=O)(=O)Nc2ccc(SCc3ccccc3Cl)cc2NS(=O)(=O)c2ccc(C)cc2)cc1 [Compound 15g, N-[4-(2-chloro-benzylsulfanyl)-2-(4-toluenesulfonylamino)-phenyl]-4-toluenesulfonamide]
46 | 64 | 214 |  | Cc1ccc(S(=O)(=O)Nc2ccc(-n3cccn3)cc2NS(=O)(=O)c2ccc(C)cc2)cc1 [Compound 17a, N-[4-(pyrazol-1-yl)-2-(4-toluenesulfonylamino)-phenyl]-4-toluenesulfonamide]
39 | 98 | > 218 |  | Cc1ccc(S(=O)(=O)Nc2ccc(N(C)C)cc2NS(=O)(=O)c2ccc(C)cc2)cc1 [Compound 17c, N-[4-dimethylamino-2-(4-toluenesulfonylamino)-phenyl]-4-toluenesulfonamide]
51 | 3.1 | > 207 |  | Cc1ccc(S(=O)(=O)Nc2ccc(-n3ccnc3)cc2NS(=O)(=O)c2ccc(C)cc2)cc1 [Compound 17d, N-[4-(imidazol-1-yl)-2-(4-toluenesulfonylamino)-phenyl]-4-toluenesulfonamide]
